The test deals with RIPK2 enzyme (Homo sapiens (Human), UniProt O43353). Kind of test: RIPK2 inhibition assay, TR-FRET LanthaScreen Tracer 199 screening assay. It is filed as binding. As to conditions: 5 nM RIPK2 enzyme, Tracer 199 at 50 nM, Eu-anti-His Antibody at 2 nM, 1 hour incubation. The protocol: All data was collected using a standard TR-FRET screening assay: LanthaScreen Tracer 199 at 50 nM, Eu-anti-His Antibody at 2 nM, 5 nM RIPK2 enzyme, and 1× Kinase Reaction Buffer. There was a 1 hour incubation prior to read. TR-FRET signal of the interaction (340Ex/665Em/615Em) was read at room temperature with standard setting. Background was subtracted of wells containing no enzyme. Percent inhibition was based on uninhibited controls log (inhibitor) vs. response. Variable slope equation was used with no constraints: Log Y=Bottom+(Top−Bottom)/(1+10^((Log IC50−X)*Hill Slope)).
Chain of RIPK2 enzyme (O43353 whole entry): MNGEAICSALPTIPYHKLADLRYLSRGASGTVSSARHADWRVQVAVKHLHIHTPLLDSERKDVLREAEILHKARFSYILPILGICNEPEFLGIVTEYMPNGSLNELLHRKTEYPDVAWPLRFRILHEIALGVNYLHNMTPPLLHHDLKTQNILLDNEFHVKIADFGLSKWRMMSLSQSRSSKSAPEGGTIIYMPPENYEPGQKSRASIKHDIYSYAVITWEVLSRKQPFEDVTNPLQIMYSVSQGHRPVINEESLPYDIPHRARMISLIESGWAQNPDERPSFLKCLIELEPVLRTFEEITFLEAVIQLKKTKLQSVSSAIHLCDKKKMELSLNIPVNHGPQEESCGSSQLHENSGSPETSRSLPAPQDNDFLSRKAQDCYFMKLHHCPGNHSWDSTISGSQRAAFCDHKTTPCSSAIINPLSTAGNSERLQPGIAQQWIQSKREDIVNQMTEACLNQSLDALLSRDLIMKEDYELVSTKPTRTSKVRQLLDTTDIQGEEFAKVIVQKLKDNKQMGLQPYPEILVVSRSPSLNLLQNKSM
The compound numbers correspond to the compound numbers above.
(In general: Time-resolved FRET reads energy transfer from a long-lived donor to a nearby acceptor.)
For orientation: IC50 means the point on the concentration scale where inhibition reaches its midpoint. As for `CCN1CCC(c2cc3c(Nc4c(F)cc5scnc5c4F)ccnc3s2)C1(C)C` (stereo not shown) [Example 97, N-(2-(1-ethyl-2,2-dimethylpyrrolidin-3-yl)thieno[2,3-b]pyridin-4-yl)-4,6-difluorobenzo[d]thiazol-5-amine], the IC50 was at most 10 nM.
For `C[C@H]1NCCC[C@@H]1c1cc2c(Nc3ccc4scnc4c3F)ccnc2s1` [Example 56a, 4-fluoro-N-(2-((2R,3S)-2-methyl-piperidin-3-yl)thieno[2,3-b]pyridin-4-yl)benzo[d]thiazol-5-amine] the value was at most 10 nM; for `CC(=O)N1CCCC=C(c2cc3c(Nc4ccc5scnc5c4)ccnc3s2)C1` [Example 114, 1-(6-(4-(benzo[d]thiazol-5-ylamino)thieno[2,3-b]pyridin-2-yl)-2,3,4,7-tetrahydro-1H-azepin-1-yl)ethan-1-one], at most 10 nM.
For `CN1CCC(c2cc3c(Nc4ccc5scnc5c4)ccnc3s2)C12CCOC2` (stereo not shown) [Example 43, N-(2-(1-methyl-7-oxa-1-azaspiro[4.4]nonan-4-yl)thieno[2,3-b]pyridin-4-yl)benzo[d]thiazol-5-amine] the value was 20 to 50 nM; for `CCN1CCC[C@@H](c2cc3c(Nc4cc5ncsc5cc4F)ccnc3s2)[C@H]1C` [Example 53b, N-(2-((2R)-1-ethyl-2-methylpiperidin-3-yl)thieno[2,3-b]pyridin-4-yl)-6-fluorobenzo[d]thiazol-5-amine], at most 10 nM.
Compound `CC1(C)C(c2cc3c(Nc4c(F)cc5scnc5c4F)ccnc3s2)CCN1CCO` (stereo not shown) [Example 98, 2-(3-(4-((4,6-difluorobenzo[d]thiazol-5-yl)amino)thieno[2,3-b]pyridin-2-yl)-2,2-dimethylpyrrolidin-1-yl)ethan-1-ol] returned an IC50 of at most 10 nM.
Compound `CC1NCCCC1c1cc2c(Nc3cc4ncsc4cc3F)c(F)cnc2s1` (single isomer, unassigned) [Example 122c, 6-fluoro-N-(5-fluoro-2-(2-methylpiperidin-3-yl)thieno[2,3-b]pyridin-4-yl) benzo[d]thiazol-5-amine] gave a concentration for half-maximal inhibition (IC50) of 10 to 20 nM.
Under `CC(=O)N1CCCC(c2cc3c(Nc4ccc5scnc5c4)ccnc3s2)CC1` (stereo not shown) [Example 111, 1-(4-(4-(benzo[d]thiazol-5-ylamino)thieno[2,3-b]pyridin-2-yl)azepan-1-yl)ethan-1-one] stands 10 to 20 nM; under `C[C@H]1NCCC[C@H]1c1cc2c(Nc3c(F)cc4scnc4c3F)ccnc2s1` [Example 67b, 4,6-difluoro-N-(2-((2R,3R)-2-methylpiperidin-3-yl)thieno[2,3-b]pyridin-4-yl)benzo[d]thiazol-5-amine], at most 10 nM.
Under `CCN1CCC(c2cc3c(Nc4c(F)cc5scnc5c4F)ccnc3s2)C12CCOC2` (stereo not shown) [Example 101, N-(2-(1-ethyl-7-oxa-1-azaspiro[4.4]nonan-4-yl)thieno[2,3-b]pyridin-4-yl)-4,6-difluorobenzo[d]thiazol-5-amine] stands 20 to 50 nM.
`C[C@@H]1NCCC[C@@H]1c1cc2c(Nc3c(F)cc4scnc4c3F)ccnc2s1` [Example 68b, 4,6-difluoro-N-(2-((2S,3S)-2-methylpiperidin-3-yl)thieno[2,3-b]pyridin-4-yl)benzo[d]thiazol-5-amine] registered a concentration for half-maximal inhibition (IC50) of at most 10 nM.
Compound `CCOCCN1CCCC(c2cc3c(Nc4ccc5scnc5c4)ccnc3s2)C1C` (stereo not shown) [Example 19, N-(2-(1-(2-ethoxyethyl)-2-methylpiperidin-3-yl)thieno[2,3-b]pyridin-4-yl)benzo[d]thiazol-5-amine] gave an IC50 of 10 to 20 nM.
Take `C1=C(c2cc3c(Nc4ccc5scnc5c4)ccnc3s2)C2(COC2)NC1` [Example 39, N-(2-(2-oxa-5-azaspiro[3.4]oct-7-en-8-yl)thieno[2,3-b]pyridin-4-yl)benzo[d]thiazol-5-amine]: the IC50 was at most 10 nM.
For `CC1NCCC1c1cc2c(Nc3cc4ncsc4cc3F)ccnc2s1` (stereo not shown) [Example 75, 6-fluoro-N-(2-(2-methylpyrrolidin-3-yl)thieno[2,3-b]pyridin-4-yl)benzo[d]thiazol-5-amine] the value was at most 10 nM; for `C[C@H]1NCCC=C1c1cc2c(Nc3c(F)cc4scnc4c3F)ccnc2s1` [Example 66a, (R)-4,6-difluoro-N-(2-(2-methyl-1,2,5,6-tetrahydropyridin-3-yl)thieno[2,3-b]pyridin-4-yl)benzo[d]thiazol-5-amine], at most 10 nM; for `CC1C(c2cc3c(Nc4ccc5scnc5c4)ccnc3s2)CCCN1CC(F)F` (stereo not shown) [Example 15, N-(2-(1-(2,2-difluoroethyl)-2-methylpiperidin-3-yl)thieno[2,3-b]pyridin-4-yl)benzo[d]thiazol-5-amine], 20 to 50 nM.
For `CC1C(c2cc3c(Nc4ccc5scnc5c4F)c(F)cnc3s2)CCCN1C` (single isomer, unassigned) [Example 125a, N-(2-(1,2-dimethylpiperidin-3-yl)-5-fluorothieno[2,3-b]pyridin-4-yl)-4-fluorobenzo[d]thiazol-5-amine] the value was at least 50 nM; for `CCC1C(c2cc3c(Nc4ccc5scnc5c4)ccnc3s2)CCCN1CC` (stereo not shown) [Example 24, N-(2-(1,2-diethylpiperidin-3-yl)thieno[2,3-b]pyridin-4-yl)benzo[d]thiazol-5-amine], 10 to 20 nM; for `C[C@H]1[C@@H](c2cc3c(Nc4ccc5scnc5c4F)ccnc3s2)CCCN1C` [Example 61, N-(2-((2S,3S)-1,2-dimethylpiperidin-3-yl)thieno[2,3-b]pyridin-4-yl)-4-fluorobenzo[d]thiazol-5-amine], at most 10 nM.
Under `COCCN1CCC=C(c2cc3c(Nc4ccc5scnc5c4)ccnc3s2)[C@@H]1C` [Example 12b, N-(2-(1-(2-methoxyethyl)-2-methyl-1,2,5,6-tetrahydropyridin-3-yl)thieno[2,3-b]pyridin-4-yl)benzo[d]thiazol-5-amine] stands at most 10 nM; under `CN1CCC(c2cc3c(Nc4cc5ncsc5cc4F)ccnc3s2)C12CCOCC2` (stereo not shown) [Example 85, 6-fluoro-N-(2-(1-methyl-8-oxa-1-azaspiro[4.5]decan-4-yl)thieno[2,3-b]pyridin-4-yl)benzo[d]thiazol-5-amine], at least 50 nM.
`C[C@@H]1NCCC=C1c1cc2c(Nc3cc4ncsc4cc3F)ccnc2s1` [Example 49b, 6-fluoro-N-(2-(2-methyl-1,2,5,6-tetrahydropyridin-3-yl)thieno[2,3-b]pyridin-4-yl)benzo[d]thiazol-5-amine] came in with a 50% inhibitory concentration (IC50) of at most 10 nM.
In turn, `CN1CCCC=C(c2cc3c(Nc4ccc5scnc5c4)ccnc3s2)C1` [Example 113, N-(2-(1-methyl-2,5,6,7-tetrahydro-1H-azepin-3-yl)thieno[2,3-b]pyridin-4-yl)benzo[d]thiazol-5-amine] gave a concentration for half-maximal inhibition (IC50) of at most 10 nM.
On to `CN1CC=C(c2cc3c(Nc4ccc5scnc5c4)ccnc3s2)C12CCOC2` (stereo not shown) [Example 41, N-(2-(1-methyl-7-oxa-1-azaspiro[4.4]non-3-en-4-yl)thieno[2,3-b]pyridin-4-yl)benzo[d]thiazol-5-amine], for which the half-maximal inhibitory concentration (IC50) lay in the range of 10 to 20 nM.
Turning to `CC1C(c2cc3c(Nc4cc5ncsc5cc4F)ccnc3s2)CCN1CCO` (stereo not shown) [Example 77, 2-(3-(4-((6-fluorobenzo[d]thiazol-5-yl)amino)thieno[2,3-b]pyridin-2-yl)-2-methylpyrrolidin-1-yl)ethan-1-ol], the half-inhibitory concentration (IC50) lay within 10 to 20 nM.
For the compound `CC1C(c2cc3c(Nc4ccc5scnc5c4)ccnc3s2)CCCCN1C` (stereo not shown) [Example 116a, N-(2-(1,2-dimethylazepan-3-yl)thieno[2,3-b]pyridin-4-yl)benzo[d]thiazol-5-amine], the IC50 was at most 10 nM.
Under `CC1C(c2cc3c(Nc4ccc5scnc5c4)c(F)cnc3s2)CCCN1C` (stereo not shown) [Example 120, N-(2-(1,2-dimethylpiperidin-3-yl)-5-fluorothieno[2,3-b]pyridin-4-yl)benzo[d]-thiazol-5-amine] stands at most 10 nM; under `C[C@@H]1C(c2cc3c(Nc4c(F)cc5scnc5c4F)ccnc3s2)=CCCN1C` [Example 69, (R)—N-(2-(1,2-dimethyl-1,2,5,6-tetrahydropyridin-3-yl)thieno[2,3-b]pyridin-4-yl)-4,6-difluorobenzo[d]thiazol-5-amine], at most 10 nM; under `CCN1CCC(c2cc3c(Nc4ccc5scnc5c4)ccnc3s2)C12CCOC2` (stereo not shown) [Example 45, N-(2-(1-ethyl-7-oxa-1-azaspiro[4.4]nonan-4-yl)thieno[2,3-b]pyridin-4-yl)benzo[d]thiazol-5-amine], 10 to 20 nM.
`CC1C(c2cc3c(Nc4ccc5scnc5c4)ccnc3s2)CCCN1CCCN` (stereo not shown) [Example 18, N-(2-(1-(3-aminopropyl)-2-methylpiperidin-3-yl)thieno[2,3-b]pyridin-4-yl)benzo[d]thiazol-5-amine]: the IC50 is at most 10 nM.
With `CC(=O)N1CCC=C(c2cc3c(Nc4ccc5scnc5c4)ccnc3s2)C1C` (stereo not shown) [Example 9, 1-(5-(4-(benzo[d]thiazol-5-ylamino)thieno[2,3-b]pyridin-2-yl)-6-methyl-3,6-dihydropyridin-1(2H)-yl)ethan-1-one], the IC50 was 10 to 20 nM.
On to `CC1(C)NCCC1c1cc2c(Nc3c(F)cc4scnc4c3F)ccnc2s1` (stereo not shown) [Example 96, N-(2-(2,2-dimethylpyrrolidin-3-yl)thieno[2,3-b]pyridin-4-yl)-4,6-difluorobenzo[d]thiazol-5-amine], for which the half-maximal inhibitory concentration (IC50) was at most 10 nM.
Consider `CC1C(c2cc3c(Nc4ccc5scnc5c4)c(F)cnc3s2)CCCN1C` (single isomer, unassigned) [Example 120c, N-(2-(1,2-dimethylpiperidin-3-yl)-5-fluorothieno[2,3-b]pyridin-4-yl)benzo[d]-thiazol-5-amine], for which the 50% inhibitory concentration (IC50) is at most 10 nM.
Under `CN1CC=C(c2cc3c(Nc4ccc5scnc5c4)ccnc3s2)C1(C)C` [Example 34, N-(2-(1,2,2-trimethyl-2,5-dihydro-1H-pyrrol-3-yl)thieno[2,3-b]pyridin-4-yl)benzo[d]thiazol-5-amine] stands at most 10 nM.

(Values after patent publication US11168093B2, “Thienopyridine inhibitors of RIPK2” (Celgene Corporation, priority 2018, dated 2021).)
